These results are taken from US11400081B2, “Compounds” (The University of Sheffield, priority 2017, dated 2022).

For experiment [1], the target named is T1, AM2 receptor (CALCRL+RAMP3) (Homo sapiens, UniProt O60896+Q16602).
T1 construct: host or cells: 1321N1
Kind of experiment: AM2 receptor inhibition, LANCE TR-FRET cAMP agonist-antagonist competition assay. To be noted: inhibition of AM induced cAMP activation; 1321N1 cells transfected with CALCRL+RAMP3; read-out: AM2 pIC50 (converted). In kind it is cell-based.

Experiment [2] deals with human pancreatic cancer cells. To be noted: local injection directly into tumours, pancreatic cancer model; cited from earlier work.

No end group written: not given here.

T1 sequence (Q16602 23-461): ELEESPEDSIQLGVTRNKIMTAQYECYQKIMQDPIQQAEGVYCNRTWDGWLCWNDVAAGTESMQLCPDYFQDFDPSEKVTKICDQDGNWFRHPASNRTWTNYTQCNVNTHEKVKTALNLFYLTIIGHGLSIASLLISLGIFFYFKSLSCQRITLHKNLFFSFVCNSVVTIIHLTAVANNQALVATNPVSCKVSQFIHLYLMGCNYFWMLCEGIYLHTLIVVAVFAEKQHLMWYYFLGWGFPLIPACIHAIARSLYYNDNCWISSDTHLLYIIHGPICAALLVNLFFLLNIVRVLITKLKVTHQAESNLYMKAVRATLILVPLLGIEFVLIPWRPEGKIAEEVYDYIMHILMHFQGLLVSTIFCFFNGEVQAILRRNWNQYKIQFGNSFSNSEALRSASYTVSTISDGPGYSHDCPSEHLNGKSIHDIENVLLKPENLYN
T1 sequence (O60896 24-148): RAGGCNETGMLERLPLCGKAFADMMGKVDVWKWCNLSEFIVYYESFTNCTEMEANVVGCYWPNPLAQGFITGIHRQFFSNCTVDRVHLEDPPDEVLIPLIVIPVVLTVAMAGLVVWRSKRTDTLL

Consider `CNCc1ccccc1CN(CC(=O)Nc1cnc2c(c1)CC1(C2)C(=O)Nc2ncccc21)C(=O)C(C)(C)C` (centres unmarked) [Example 105, N-(2-((methylamino)methyl)benzyl)-N-(2-oxo-2-((2′-oxo-1′,2′,5,7-tetrahydrospiro[cyclopenta[b]pyridine-6,3′-pyrrolo[2,3-b]pyridin]-3-yl)amino)ethyl)pivalamide 2,2,2-trifluoroacetate], for which, in experiment [1], the IC50 was 50.1 nM.

In the case of “AM22-52: "the AM peptide antagonist (AM22-52)"; "peptide and antibody AM2 receptor inhibitors are known such as AM22-52" (TVQKLAHQIYQFTDKDKDNVAPRSKISPQGY; ends and bridges not checked; UniProt P35318 116-146, looked up, fragment)”, the “tumour size compared to controls” value in experiment [2] is “reduced tumour size significantly”.
